The results in this text go back to paper PMC9223658, “New Borane-Protected Derivatives of α-Aminophosphonous Acid as Anti-Osteosarcoma Agents: ADME Analysis and Molecular Modeling, In Vitro Studies on Anti-Cancer Activities, and NEP Inhibition as a Possible Mechanism of Anti-Proliferative Activity” (International Journal of Molecular Sciences, 2022).

The subject of one series is osteosarcoma HOS cells. Nature of the series: MTT proliferation assay, 96 h. The conditions noted are these: proliferation, 10% FBS, read-out: IC50 (µM ± SD) HOS. The class given is cell-based, human. The procedure:
(§1) One of the features specific totumor cells is the unlimited potential for proliferation. […] To this end, the assay conditions were established suchthat they encourage the proliferation of OS cells, i.e., the cell cultures at low density were incubated with compounds diluted in the growth medium (10% FBS) for an extended time of 96 h. Additionally, cisplatin, i.e., a common cytostatic used in osteosarcoma treatment, was included as a positive control in this study. Moreover, since the new generation of anti-cancer compounds is highly desired to be inert (non-cytotoxic) towards normal cells, the influence of compounds 1–7 on the viability of human normal cells (osteoblasts hFOB 1.19 and colon fibroblasts CCD-18Co) was also determined.To this end, the assay conditions were established such that they restrict the proliferation of OS cells and to establish whether the compounds have cytotoxic potential, i.e., the cell cultures were incubated with compounds diluted in the medium with a reduced concentration of FBS (2%) for a shortened time of 24 h. […] However, this activity varied depending on both the types of the compounds and the osteosarcoma cell lines (Table 4).
(§2) The anti-proliferative activity of compounds 1–7 against the HOS and Saos-2 osteosarcoma cells and the viability of the human normal hFOB 1.19 and CCD-18Co cells were screened by means of the MTT method. This method is commonly used to assess cell viability and proliferation or to determine the cytotoxicity of any compounds. It is a reliable method for this purpose because it is based on measurement of the level reduction in MTT dye to formazan byNAD(P)H-dependent oxidoreductase enzymes of metabolically active cells.
(§3) To assess the anti-proliferative activity of compounds 1–7 against the HOS and Saos-2 osteosarcoma cells, 3.0 × 10^4 cells/mLseeded (low density culture) into 96-well plates (Nunc, Roskilde, Denmark) were incubated with each compound at concentrations of 3.125, 6.25, 12.5, 25, 50, 100 and 200 µM prepared in medium with 10% FBS (growth medium) for 96 h. Additionally, cisplatin (Sigma Aldrich), i.e., a common cytostatic used in osteosarcoma treatment, was included as a positive control in this study. It was tested in the same conditions as compounds 1–7. The negative control was constituted by the untreated cells (0 µM). Next, the MTT assay was carried out as described previously.
(§4) The results of these assays were calculated as a percent of the untreated cells (100%; control). Then, the IC50 (concentration resulting in 50% inhibition of proliferation) and CC50 (concentration resulting in a 50% decrease in viability) values were calculated from a non-linear regression (log(inhibitor) vs. normalized response-variable slope) using GraphPad Prism 5.0 (GraphPAD Software Inc., San Diego, CA, USA). The IC50 and CC50 results were presented as themean ± SD of at least three experiments. In the case of the BrdU assay, the results were presented as a percent of untreated cells (100%; control).

The test system of series [1] is osteosarcoma Saos-2 cells. Nature of the series: MTT proliferation assay, 96 h. The series is classed as cell-based, human. The note with it: MTT, 10% FBS, read-out: IC50 (µM ± SD) Saos-2. Here is the method: as §1, §2, §3, §4
(Tetrazolium assays rely on reduction of a dye to a coloured formazan, in cell work by metabolically active cells.)

Series [2] can be described thus: MTT viability assay, 24 h. The note with it: human, 2% FBS. The series is classed as cell-based. Here is the method: as §1, §2
To assess the viability of human normal cells, confluent hFOB 1.19 (3 × 10^5 cells/mL) and CCD-18Co (1 × 10^5 cells/mL) cells seeded in 96-well plates (Nunc) were incubated with compounds 1–7 at concentrations of 3.125, 6.25, 12.5, 25, 50, 100 and 200 µM prepared in medium with 2% FBS (maintaining medium) for 24 h. The control was constituted by the untreated cells (0 µM). Next, the MTT assay was carried out as described previously.
as §4

In series [3] the test system is active caspase 3 in HOS cells. Description: Active caspase 3 assay (flow cytometry). The class given is cell-based, human. The note with it: 3.5 µM (IC50 concentration), 72 h. Here is the method:
(§5) The level of active executor caspase 3 and initiator caspase 9 was determined to examine whether compounds 4 and 6 induced apoptosis in the HOS and Saos-2 cells. The influence of compounds 4 and 6 on HOS and Saos-2 were determined with the caspase 3 assay, whereas the influence of compound 6 on the HOS cells was investigated with the caspase 9 assay. In both assays, the osteosarcoma cells (3.0 × 10^5 cells/mL) were seeded in 6-well plates. The cells were treated with compounds 4 and 6 at concentrations of 12.5, 25, 50 µM and 20, 40, 80 µM as well as 15, 30, 60 µM and 21.25, 42.5, 85 µM for 72 h, respectively. The solutions of the compounds were prepared in a medium with 2% FBS. […] Next, floating and adherent cells were harvested and subjected to further steps of the staining procedures according to the manufacturer’s instruction. The level of active caspase 3 and caspase 9 was determined using the PE Active Caspase-3 Apoptosis Kit (BD Pharmingen^TM) and the CaspaTag^TM Caspase-9 in Situ Assay Kit (Millipore, Darmstadt, Germany), respectively. The number of stained cells (active caspase 3- or 9-positive cells) was measured using FACS Calibur, and the obtained data were analyzed using Cell Quest Pro Version 6.0. for the Macintosh operating system (BD Pharmingen™). The presented results were calculated as a percent of cells with either active caspase 3 or 9 among all the analyzed cells.

The test system of series [4] is active caspase 3 in Saos-2 cells. Description: Active caspase 3 assay (flow cytometry). The series is classed as cell-based, human. The conditions noted are these: Saos-2, 12.5 µM (IC50 concentration), 72 h. The procedure:
as §5
For orientation: In flow cytometry, cells or beads pass a laser one at a time.

Series [5] deals with active caspase 9 in HOS cells. Nature of the series: Active caspase 9 assay (flow cytometry). The series is classed as cell-based, human. The conditions noted are these: 3.5 µM (IC50 concentration), 72 h. Here is the method: as §5
A further series deals with T1, NEP (neprilysin) (Homo sapiens, UniProt P08473).
T1 construct: purchased BioVision, Waltham, MA, USA
Description: Neutral endopeptidase activity assay (fluorometric). The series is classed as biochemical. Here is the method:
The NEP activity in the presence of compounds 4 and 6 was determined using the Neprilysin Activity Assay Kit (BioVision, Waltham, MA, USA) according to the manufacturer’s instructions. The measurement is based on the ability of active neprilysin to cleave a synthetic substrate (Abz-based peptide) to release a fluorophore, which can be easily quantified using a fluorescence microplate reader. Briefly, pure neprilysin (5µLof stock solution) was incubated with solutions of the tested compounds (at least 4 concentrations in the range of 0.01–50 µM) for 10 min at 37 °C. The reaction was started by adding the substrate solution, and the final sample volume was 100µL. Fluorescence was measured (Ex/Em = 330/430nm) in the kinetic mode at 37 °C for 1–2 h. The same procedure was used to measure the control and background sample. Thiorphan was used as a reference NEP inhibitor. NEP activity was determined with the prepared Abz standard curve and expressed in µU/mL. The experiments were performed at least in triplicates, and the graphs represent mean ±SD values.

A further series deals with HOS cells. Nature of the series: BrdU proliferation assay, 96 h. The series is classed as cell-based, human. The note with it: for decrease in proliferation: 96 h. Here is the method: (§6) In the study on the implication of NEP in the anti-proliferative activity of compound 4, cell proliferation was determined with the BrdU assay. Cell cultures were prepared as described above. Depending on the requirements, the HOS and Saos-2 cells were treated with non-cytotoxic concentrations of the NEP inhibitor—thiorphan (1, 5, 20, 100, 200, 500 µM) or pre-treated with thiorphan (100 µM) for 1 h. In this scheme, compound 4 (HOS—25 µM; Saos-2—60 µM) was added alone or in combination with the NEP inhibitor into the cell cultures. Finally, cell proliferation was evaluated with the BrdU Cell Proliferation Assay according to the manufacturer’s instructions (Millipore, Darmstadt, Germany) after a 96-h incubation.
as §4

The next series deals with Saos-2 cells. Nature of the series: BrdU proliferation assay, 96 h. The class given is cell-based, human. The note with it: for decrease in proliferation: 96 h. Here is the method:
as §6, §4

[6] abbreviates: Homo sapiens, SAOS-2, proliferation.
[7] abbreviates: normal osteoblasts hFOB 1.19 cells, read-out: CC50 (µM ± SD) hFOB 1.19.

Like-named read-outs stand apart in the source and are kept apart here.

T1 sequence (P08473 whole entry): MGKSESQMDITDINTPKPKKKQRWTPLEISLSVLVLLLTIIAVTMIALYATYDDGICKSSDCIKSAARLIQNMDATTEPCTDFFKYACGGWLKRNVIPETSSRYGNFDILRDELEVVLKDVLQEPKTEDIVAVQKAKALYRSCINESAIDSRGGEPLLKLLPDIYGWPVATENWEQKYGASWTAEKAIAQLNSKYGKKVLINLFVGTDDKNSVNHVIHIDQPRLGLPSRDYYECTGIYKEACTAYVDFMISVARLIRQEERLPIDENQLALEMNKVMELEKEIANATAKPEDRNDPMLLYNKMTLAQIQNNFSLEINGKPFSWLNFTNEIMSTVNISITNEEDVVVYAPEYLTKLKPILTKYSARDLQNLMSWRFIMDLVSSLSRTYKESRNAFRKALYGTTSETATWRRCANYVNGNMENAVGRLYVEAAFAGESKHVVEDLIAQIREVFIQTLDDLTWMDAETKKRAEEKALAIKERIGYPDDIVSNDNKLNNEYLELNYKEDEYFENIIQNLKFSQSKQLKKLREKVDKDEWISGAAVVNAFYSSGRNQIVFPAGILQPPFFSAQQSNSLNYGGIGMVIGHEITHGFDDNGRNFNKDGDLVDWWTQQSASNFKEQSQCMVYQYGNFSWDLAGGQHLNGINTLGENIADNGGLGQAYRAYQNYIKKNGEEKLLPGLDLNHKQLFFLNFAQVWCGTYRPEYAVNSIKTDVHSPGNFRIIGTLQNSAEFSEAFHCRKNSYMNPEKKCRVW

With `[BH3-][P+](Cc1ccccc1)(OC(C)C)OC(C)C` [Compound 1, benzylphosphonous acid-borane diisopropyl ester], the IC50 with osteosarcoma HOS cells (Homo sapiens, HOS) was 164 ± 79.5 µM; in series [1] (setting [6]) it was 91 ± 19.4 µM. For the same compound, in [2] (setting [7]), the 50% cytotoxic concentration (CC50) at 24 h is 161 ± 22.9 µM.

Regarding `[BH3-][P+](OC(C)C)(OC(C)C)C(C)(C)O` [Compound 2, 1-hydroxy-1-methylethylphosphonous acid-borane diisopropyl ester], the IC50 in the series on osteosarcoma HOS cells (Homo sapiens, HOS) is 344 ± 142 µM; in [1] (setting [6]), 83.4 ± 18.4 µM. The CC50 at 24 h in series [2] (setting [7]) was 182 ± 28.1 µM.

With `[BH3-][P+](OC(C)C)(OC(C)C)C(Nc1ccc(Br)cc1)c1ccc(OC)cc1` (stereo not drawn) [Compound 7, [1-(N-p-bromophenylamino)]-1-(p-anisyl)methylphosphonous acid-borane diisopropyl ester], the 50% inhibitory concentration (IC50) in the series with osteosarcoma HOS cells (Homo sapiens, HOS) is 51.2 ± 18.6 µM; in [1] (setting [6]), 109 ± 15.8 µM. Moreover, in [2] (setting [7]), the cytotoxic concentration (CC50) at 24 h was determined as 214 ± 39.5 µM.

On to `[BH3-][P+](OC(C)C)(OC(C)C)C(Nc1ccc(O)cc1)c1ccccc1` (stereo not drawn) [Compound 5], for which the half-inhibitory concentration (IC50) came out at 79.5 ± 22.9 µM in the series with osteosarcoma HOS cells (Homo sapiens, HOS) and 96 ± 3.3 µM in series [1] (setting [6]). For the same compound, the cytotoxic concentration (CC50) at 24 h in series [2] (normal colon fibroblasts CCD-18Co cells, read-out: CC50 (µM ± SD) CCD-18Co) was 62.5 ± 36.2 µM; in series [2] (setting [7]), 43.9 ± 3.5 µM.

For the compound `[NH2][Pt]([NH2])([Cl])[Cl]` [CDDP, cisplatin, reference compound], the IC50 worked out at 3.5 ± 0.92 µM in the series with osteosarcoma HOS cells and 12.8 ± 3.7 µM in series [1] (proliferation). Further, the results for the “increase in active caspase 3 vs untreated cells” value in [3] and in series [4] were “approx. 13%” and “approx. 9%”, respectively. For the same compound, the “increase in active caspase 9 vs untreated cells” value in series [5] is reported as “approx. 10%”.

`O=C(O)CNC(=O)C(CS)Cc1ccccc1` (stereo not drawn) [thiorphan, N-[2-(mercaptomethyl)-1-oxo-3-phenylpropyl]glycine]: the entries for the “decrease in NEP activity” value on NEP (neprilysin) (0.0005 µM), at NEP (neprilysin) (0.005 µM) and at NEP (neprilysin) (0.01 µM) were “approx. 30%”, “approx. 50%” and approximately 60%, respectively. Also, the effect on proliferation result is on record as “did not affect cell proliferation” with HOS cells (100 µM) and “did not affect cell proliferation” in the series on Saos-2 cells (Saos-2, 100 µM). Besides, the decrease in proliferation entry is given as “approx. 30%” in the series on HOS cells (200 µM); approximately 40% with HOS cells (500 µM); 35% with Saos-2 cells (Saos-2, 200 µM); 60% with Saos-2 cells (Saos-2, 500 µM).

As for `[BH3-][P+](OC(C)C)(N(CC)CC)C(C)(C)O` (stereo not drawn) [Compound 3, 1-hydroxy-1-methylethylphosphonous acid-borane isopropyl ester N,N-diethylamide], the IC50 in the series with osteosarcoma HOS cells (Homo sapiens, HOS) came out at 226 ± 3.56 µM; in [1] (setting [6]) it was 79.6 ± 13.6 µM. Also, the cytotoxic concentration (CC50) at 24 h in series [2] (setting [7]) came out at 224 ± 95.3 µM.

What is called IC50 is the concentration that inhibits the measured activity by half. One may read the CC50 as the concentration at which the toxic effect on the cells reaches its halfway point.
